Reference: patent US20220324835A1 (Nurix Therapeutics, Inc., priority 2018, published 2022)

What was measured:
[1] = test system: T-cell; test: IL-2 secretion from T-cells co-stimulated with anti-CD3 and anti-CD28 antibody (Biological Example 2); assay type: cell-based, human; details: Homo sapiens, T-cell, primary human total T-cells, baseline = anti-CD3/anti-CD28 stimulated cells without inhibitor, read-out: IL-2 secretion, Anti-CD3/Anti-CD28 stimulation, fold change over baseline; for fold induction at 0.3 µM: 0.3 μM compound; for fold induction at 1 µM: 1 μM compound; for fold induction at 4 µM: 4 μM compound
Outline: (§1)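 No assay protocol given; T-cells stimulated with anti-CD3 alone or anti-CD3 plus anti-CD28, with or without Cbl-b inhibitor. Activation read as IL-2 secretion or CD25 surface staining, expressed as fold over baseline from uninhibited cells […].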

[2] = test system: T-cell; test: IL-2 secretion from T-cells stimulated with anti-CD3 antibody alone (Biological Example 2); assay type: cell-based; details: primary human total T-cells, read-out: IL-2 secretion, Anti-CD3 stimulation, fold change over baseline; for fold induction at 1 µM: 1 μM compound; for fold induction at 8 µM: 8 μM compound
[3] = test system: T-cell; test: CD25 cell surface staining on T-cells co-stimulated with anti-CD3 and anti-CD28 antibody (Biological Example 2); assay type: cell-based, human; details: Homo sapiens, T-cell, primary human total T-cells, baseline = anti-CD3/anti-CD28 stimulated cells without inhibitor, read-out: CD25 staining, Anti-CD3/Anti-CD28 stimulation, fold change over baseline; for fold induction at 0.3 µM: 0.3 μM compound; for fold induction at 1 µM: 1 μM compound; for fold induction at 4 µM: 4 μM compound
Outline: as §1

[4] = test system: T-cell; test: CD25 cell surface staining on T-cells stimulated with anti-CD3 antibody alone (Biological Example 2); assay type: cell-based; details: primary human total T-cells, baseline = anti-CD3/anti-CD28 stimulated cells without inhibitor, read-out: CD25 staining, Anti-CD3 stimulation, fold change over baseline; for fold induction at 1 µM: 1 μM compound; for fold induction at 8 µM: 8 μM compound
[5] = molecular target: T1, Cbl-b (Homo sapiens, UniProt Q13191); test: Cbl-b activity assay (Cbl-b inhibition assay), TR-FRET of Cbl-b interaction with UbcH5B-Ub; assay type: biochemical; details: assay buffer with 100 mM NaCl, 60 nM Src kinase; read-out: Cbl-b activity IC50
Outline: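 TR-FRET readout of Cbl-b binding to Bodipy-fluorescein N-terminally labeled Ub conjugated to UbcH5B C85K, measured with compound present. After compound incubation, 60 nM Src kinase with 1 mM ATP and 5 mM MgCl2 (final) was added for 1.5 h, then a further 1 h incubation; asterisked values used 50 mM NaCl buffer and 30 nM Src.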

[6] = molecular target: T1, Cbl-b; test: Cbl-b inhibition assay (Cbl-b activity assay, FRET, Biological Example 1; 100 mM NaCl, 60 nM Src kinase); assay type: biochemical; details: upper bound stated in text lists; read-out: IC50 values in the Cbl-b inhibition assay of Biological Example 1
Outline: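 Here, the E2 UbcH5B, irreversibly linked to Bodipy-fluorescein ubiquitin, binds Cbl-b once Src kinase phosphorylates it; Cbl-b carries an N-terminal biotinylated Avi-tag captured by streptavidin-terbium. An absent FRET signal indicates inhibition.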

T1 sequence (Q13191 36-427): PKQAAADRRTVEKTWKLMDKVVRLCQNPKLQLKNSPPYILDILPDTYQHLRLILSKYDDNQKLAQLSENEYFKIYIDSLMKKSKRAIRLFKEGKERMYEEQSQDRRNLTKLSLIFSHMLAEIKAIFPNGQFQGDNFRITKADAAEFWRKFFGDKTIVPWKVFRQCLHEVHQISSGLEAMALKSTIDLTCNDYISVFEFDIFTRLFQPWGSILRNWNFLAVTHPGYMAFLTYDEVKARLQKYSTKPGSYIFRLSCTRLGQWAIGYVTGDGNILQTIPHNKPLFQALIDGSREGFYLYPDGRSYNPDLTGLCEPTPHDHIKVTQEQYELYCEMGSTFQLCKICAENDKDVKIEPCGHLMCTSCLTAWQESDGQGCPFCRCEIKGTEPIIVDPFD

Row | SMILES | fold induction at 0.3 µM [1] | fold induction at 1 µM [1] | fold induction at 4 µM [1] | fold induction at 1 µM [2] | fold induction at 8 µM [2] | fold induction at 0.3 µM [3] | fold induction at 1 µM [3] | fold induction at 4 µM [3] | fold induction at 1 µM [4] | fold induction at 8 µM [4] | IC50 [5] [nM] | IC50 [6] [nM]
1 | C[C@H](Cc1nocc1C(F)(F)F)c1cccc(N2Cc3c(cc(C(=O)N4CC[C@H](O)C4)cc3C(F)(F)F)C2=O)c1 [Compound 484, 6-[(3S)-3-hydroxypyrrolidine-1-carbonyl]-4-(trifluoromethyl)-2-[3-[(2R)-1-[4-(trifluoromethyl)-1,2-oxazol-3-yl]propan-2-yl]phenyl]-2,3-dihydro-1H-isoindol-1-one] | 1.01 to 2.5 | 1.01 to 2.5 | 2.51 to 5 | 0.051 to 0.1 | > 0.201 | 1.01 to 1.3 | 1.01 to 1.3 | 1.31 to 1.5 | 0.601 to 0.8 | > 1 | 100 to 300 | ≤ 300
2 | C[C@H](c1cc2c(c(C(F)(F)F)c1)CN(c1cccc(C3(Cc4nncn4C)COC3)c1)C2=O)N1C[C@H]2C[C@H]2C1 [Compound 541b, 6-((1R)-1-(3-azabicyclo[3.1.0]hexan-3-yl)ethyl)-2-(3-(3-((4-methyl-4H-1,2,4-triazol-3-yl)methyl)oxetan-3-yl)phenyl)-4-(trifluoromethyl)isoindolin-1-one] | > 7.5 | > 7.5 | – | > 0.201 | – | 1.31 to 1.5 | 1.31 to 1.5 | – | > 1 | – | < 100 | ≤ 100
3 | Cn1cnnc1C(F)(F)[C@](C)(F)c1cccc(N2Cc3c(cc(-c4cncc(F)c4)cc3C(F)(F)F)C2=O)c1 [Compound 440, (R)-6-(5-fluoropyridin-3-yl)-2-(3-(1,1,2-trifluoro-1-(4-methyl-4H-1,2,4-triazol-3-yl)propan-2-yl)phenyl)-4-(trifluoromethyl)isoindolin-1-one] | 1.01 to 2.5 | 2.51 to 5 | 2.51 to 5 | 0.101 to 0.15 | 0.151 to 0.2 | < 1 | 1.01 to 1.3 | 1.01 to 1.3 | 0.601 to 0.8 | 0.801 to 1 | 100 to 300 | ≤ 300
4 | Cn1cnnc1CC1(c2cccc(N3Cc4c(cccc4C(F)(F)F)C3=O)c2)CC(F)(F)C1 [Compound 527, 2-(3-(3,3-difluoro-1-((4-methyl-4H-1,2,4-triazol-3-yl)methyl)cyclobutyl)-phenyl)-4-(trifluoromethyl)isoindolin-1-one] | 2.51 to 5 | 5 to 7.5 | – | > 0.201 | – | 1.01 to 1.3 | 1.01 to 1.3 | – | > 1 | – | < 100 | ≤ 100
5 | Cn1cnnc1C(F)(F)[C@](C)(F)c1cccc(N2Cc3c(cc(CN4CC[C@H](C#N)C4)cc3C(F)(F)F)C2=O)c1 [Compound 454, (S)-1-((3-oxo-2-(3-((R)-1,1,2-trifluoro-1-(4-methyl-4H-1,2,4-triazol-3-yl)propan-2-yl)phenyl)-7-(trifluoromethyl)isoindolin-5-yl)methyl)pyrrolidine-3-carbonitrile] | 5 to 7.5 | > 7.5 | > 7.5 | > 0.201 | > 0.201 | 1.01 to 1.3 | 1.31 to 1.5 | 1.31 to 1.5 | > 1 | > 1 | < 100 | ≤ 100
6 | Cn1cnnc1C(F)(F)[C@](C)(F)c1cccc(NC(=O)c2cc(CN3CC[C@H](F)C3)nc(C3CC3)n2)c1 [Compound 512, 2-cyclopropyl-6-{[(3S)-3-fluoropyrrolidin-1-yl]methyl}-N-{3-[(2R)-1,1,2-trifluoro-1-(4-methyl-1,2,4-triazol-3-yl)propan-2-yl]phenyl}pyrimidine-4-carboxamide] | 2.51 to 5 | 5 to 7.5 | – | 0.051 to 0.1 | – | 1.01 to 1.3 | 1.01 to 1.3 | – | 0.801 to 1 | – | < 100 | ≤ 100
7 | Cn1cnnc1CC1(c2cccc(N3Cc4c(cc(CN5CC(F)C5(C)C)cc4C(F)(F)F)C3=O)c2)COC1 (centres unmarked) [Compound 536, 6-((3-fluoro-2,2-dimethylazetidin-1-yl)methyl)-2-(3-(3-((4-methyl-4H-1,2,4-triazol-3-yl)methyl)oxetan-3-yl)phenyl)-4-(trifluoromethyl)isoindolin-1-one] | 2.51 to 5 | 5 to 7.5 | – | 0.101 to 0.15 | – | 1.31 to 1.5 | 1.31 to 1.5 | – | > 1 | – | < 100 | ≤ 100
8 | Cn1cnnc1CC1(c2cccc(N3Cc4c(cc(CN5CCS(=O)(=O)CC5)cc4C(F)(F)F)C3=O)c2)COC1 [Compound 434, 4-{[2-(3-{3-[(4-methyl-4H-1,2,4-triazol-3-yl)methyl]oxetan-3-yl}phenyl)-3-oxo-7-(trifluoromethyl)-2,3-dihydro-1H-isoindol-5-yl]methyl}-1λ^6-thiomorpholine-1,1-dione] | 2.51 to 5 | 2.51 to 5 | – | 0.101 to 0.15 | – | 1.01 to 1.3 | 1.01 to 1.3 | – | > 1 | – | < 100 | ≤ 100
9 | C[C@H](c1cc2c(c(C(F)(F)F)c1)CN(c1cccc([C@@](C)(F)C(F)(F)c3nncn3C)c1)C2=O)N1CC[C@H](F)C1 [Compound 459, 6-((R)-1-((S)-3-fluoropyrrolidin-1-yl)ethyl)-2-(3-((R)-1,1,2-trifluoro-1-(4-methyl-4H-1,2,4-triazol-3-yl)propan-2-yl)phenyl)-4-(trifluoromethyl)isoindolin-1-one] | 2.51 to 5 | > 7.5 | > 7.5 | > 0.201 | > 0.201 | 1.01 to 1.3 | 1.31 to 1.5 | 1.51 to 1.75 | > 1 | > 1 | < 100 | ≤ 100
10 | Cn1cnnc1CC1(c2cccc(NC(=O)c3cc(CN4CCC4)nc(C4CC4)n3)c2)COC1 [Compound 504, 6-(azetidin-1-ylmethyl)-2-cyclopropyl-N-(3-{3-[(4-methyl-1,2,4-triazol-3-yl)methyl]oxetan-3-yl}phenyl)pyrimidine-4-carboxamide] | 2.51 to 5 | 5 to 7.5 | – | 0.051 to 0.1 | – | 1.01 to 1.3 | 1.31 to 1.5 | – | 0.801 to 1 | – | < 100 | ≤ 100
11 | C[C@H](c1cc2c(c(C(F)(F)F)c1)CN(c1cccc(C3(Cc4nncn4C)COC3)c1)C2=O)N1CCC2(CC1)CC2 [Example 558b, (R)-6-(1-(6-azaspiro[2.5]octan-6-yl)ethyl)-2-(3-(3-((4-methyl-4H-1,2,4-triazol-3-yl)methyl)oxetan-3-yl)phenyl)-4-(trifluoromethyl)isoindolin-1-one] | > 7.5 | > 7.5 | – | > 0.201 | – | 1.01 to 1.3 | 1.01 to 1.3 | – | > 1 | – | < 100 | ≤ 100
12 | CC(c1cc2c(c(C(F)(F)F)c1)CN(c1cccc([C@H]3C[C@H]3c3nncn3C)c1)C2=O)N1CC[C@H](F)C1 (stereo partly drawn) [Compound 466, 6-(1-((S)-3-fluoropyrrolidin-1-yl)ethyl)-2-(3-((1S,2R)-2-(4-methyl-4H-1,2,4-triazol-3-yl)cyclopropyl)phenyl)-4-(trifluoromethyl)isoindolin-1-one] | 2.51 to 5 | > 7.5 | > 7.5 | > 0.201 | > 0.201 | 1.31 to 1.5 | 1.51 to 1.75 | 1.51 to 1.75 | > 1 | > 1 | < 100 | ≤ 100
